A word on the IC50: it is the midpoint of a concentration-inhibition curve.

Where only a bound is given, the exact number is not on record here.

Common to all, as to type: biochemical
Assay [1] has as its target T1, Recombinant human SSAO protein (Homo sapiens, UniProt Q16853).
T1 construct: Eli Lilly (provided, not a catalogue product)
T1 sequence (Q16853 1-763): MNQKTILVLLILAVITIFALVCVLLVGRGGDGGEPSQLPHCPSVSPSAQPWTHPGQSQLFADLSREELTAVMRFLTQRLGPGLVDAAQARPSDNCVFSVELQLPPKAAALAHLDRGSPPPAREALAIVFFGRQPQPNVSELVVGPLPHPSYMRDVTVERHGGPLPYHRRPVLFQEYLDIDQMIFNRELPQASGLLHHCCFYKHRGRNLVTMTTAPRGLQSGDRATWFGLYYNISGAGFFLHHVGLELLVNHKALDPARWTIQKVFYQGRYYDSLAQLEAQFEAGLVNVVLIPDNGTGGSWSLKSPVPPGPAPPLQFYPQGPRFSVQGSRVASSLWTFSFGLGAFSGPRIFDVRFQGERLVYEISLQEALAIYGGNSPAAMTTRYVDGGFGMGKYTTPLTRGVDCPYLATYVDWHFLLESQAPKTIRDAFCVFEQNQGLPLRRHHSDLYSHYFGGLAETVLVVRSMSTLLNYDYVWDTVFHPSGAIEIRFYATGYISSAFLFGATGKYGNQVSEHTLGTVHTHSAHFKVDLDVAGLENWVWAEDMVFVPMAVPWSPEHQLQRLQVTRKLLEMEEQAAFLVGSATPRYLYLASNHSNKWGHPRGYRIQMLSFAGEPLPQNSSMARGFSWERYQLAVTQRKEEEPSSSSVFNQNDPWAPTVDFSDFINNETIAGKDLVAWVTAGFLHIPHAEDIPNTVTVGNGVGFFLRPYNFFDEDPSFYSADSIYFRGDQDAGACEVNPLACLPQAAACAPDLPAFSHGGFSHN
The assay is described as follows: In vitro inhibitory activity on SSAO/VAP-1 (MAO-Glo assay), human. As to the method:
This assay was used to evaluate the in vitro inhibitory activity of the compounds on SSAO/VAP-1 of different species. Recombinant human SSAO protein, mouse SSAO protein or rat SSAO protein (provided by Eli Lilly) were used. The enzyme activity detection kit, MAO-Glo Assay kit (V1402) was purchased from Promega. Enzyme reaction buffer (50 mM HEPES, 120 mM NaCl, 5 mM KCl, 2 mM CaCl2, 1.4 mM MgCl2, 0.001% Tween-20, pH7.4) was prepared. The test compound was dissolved in DMSO and diluted by 3-fold concentration in gradient. The final concentration of test compound in a 10 μL reaction system was 1 μM to 0.05 nM when SSAO was detected. The content of DMSO in the detection reaction was 1%. After the solution of test compound in DMSO was diluted in the enzyme reaction buffer at a volume ratio of 1:25, 2.5 μL of which was added to each well of detection plate, two replicates for each concentration. 5 μL of SSAO protein diluted in the enzyme reaction buffer was added to each well, the final concentration of which was 10 nM to 80 nM in 10 μL reaction system. The mixture was incubated at room temperature for 10 minutes. 2.5 μL of the reaction substrate diluted in the enzyme reaction buffer was added to each well, the final concentration of which was 10 μM in 10 μL reaction system. After the mixture was reacted at room temperature for 120 minutes, 10 μL of detection reagent was added to each well. The reaction solution was incubated for 20 minutes at room temperature, and the plate was read with Synergy Neo 2 for detection. The value was converted into inhibition rate by the following formula: Inhibition rate=(Signalpositive−Signaltest)/(Signalpositive−Signalnegative)×100%
Signalpositive was positive control without test compound. Signalnegative was negative control without test compound and SSAO enzyme, and Signaltest was detection value of each compound at different concentrations. IC50 value was calculated by using 4 parameter curve fitting.

For assay [2], the target named is T2, Recombinant human MAO-A (Homo sapiens, UniProt P21397).
T2 construct: purchased Sigma M7316
T2 sequence (P21397 1-527): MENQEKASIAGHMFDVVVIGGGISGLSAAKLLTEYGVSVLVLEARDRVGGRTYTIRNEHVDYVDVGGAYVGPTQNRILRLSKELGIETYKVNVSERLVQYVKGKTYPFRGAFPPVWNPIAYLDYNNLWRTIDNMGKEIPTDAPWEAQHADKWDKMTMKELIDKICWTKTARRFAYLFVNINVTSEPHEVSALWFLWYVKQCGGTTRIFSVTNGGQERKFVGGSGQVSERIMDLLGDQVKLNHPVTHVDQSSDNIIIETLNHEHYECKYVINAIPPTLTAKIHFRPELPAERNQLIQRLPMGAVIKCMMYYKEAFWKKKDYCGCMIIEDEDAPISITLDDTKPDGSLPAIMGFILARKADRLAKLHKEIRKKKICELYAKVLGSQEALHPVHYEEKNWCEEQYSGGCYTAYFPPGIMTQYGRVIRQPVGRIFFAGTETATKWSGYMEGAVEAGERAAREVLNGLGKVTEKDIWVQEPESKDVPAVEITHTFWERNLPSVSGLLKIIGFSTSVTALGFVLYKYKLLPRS
The assay is described as follows: Inhibitory activity on MAO-A. As to the method: (§1) Recombinant human MAO-A and MAO-B protein was purchased from Sigma (M7316, M7441). Other reagents are the same as Biological Test Example 1. The final concentration of test compound in 10 μL reaction system was 100 μM to 5 nM when MAO-A and MAO-B were detected. The final concentrations of MAO-A and MAO-B protein in 10 μL reaction system were 70 nM and 300 nM, respectively, while other reaction conditions were the same as those in Biological Test Example 1. Data analysis and IC50 calculation method were the same as those in Biological Test Example 1.

The target in assay [3] is T3, Recombinant human MAO-B (Homo sapiens, UniProt P27338).
T3 construct: purchased Sigma M7441
T3 sequence (P27338 1-520): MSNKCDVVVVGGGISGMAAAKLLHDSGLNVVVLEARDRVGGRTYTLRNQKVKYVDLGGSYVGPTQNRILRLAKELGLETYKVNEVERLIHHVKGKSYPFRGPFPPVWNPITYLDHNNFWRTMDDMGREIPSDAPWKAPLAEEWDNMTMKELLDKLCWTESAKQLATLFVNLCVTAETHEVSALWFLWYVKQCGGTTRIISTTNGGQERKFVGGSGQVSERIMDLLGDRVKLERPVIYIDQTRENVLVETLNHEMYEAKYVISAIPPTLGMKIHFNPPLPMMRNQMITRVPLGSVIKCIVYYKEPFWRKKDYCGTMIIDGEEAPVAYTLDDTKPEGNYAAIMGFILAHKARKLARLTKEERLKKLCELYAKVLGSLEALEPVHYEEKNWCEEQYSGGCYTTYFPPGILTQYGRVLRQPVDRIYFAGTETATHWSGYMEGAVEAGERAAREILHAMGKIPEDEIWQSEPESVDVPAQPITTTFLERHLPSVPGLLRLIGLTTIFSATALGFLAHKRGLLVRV
Nature of the assay: Inhibitory activity on MAO-B. On the procedure:
as §1

Consider `NC/C(=C\F)COc1cnc(N2CC3(COC3)C2)nc1` [Example 11], for which the IC50 in assay [1] is greater than 0.05 µM; in assay [2], 2 to 100 µM; in assay [3] it was greater than 20 µM.

The values above are taken from patent publication US12258336B2, “Preparation of seimicarbazide-sensitive amine oxidase inhibitor and use thereof” (SHANGHAI ENNOVABIO PHARMACEUTICALS CO., LTD., priority 2018, dated 2025).
